Measured values: PMC5617979, “Comparative Study on Antistaphylococcal Activity of Lipopeptides in Various Culture Media” (Antibiotics, 2017)
Positions of bridges follow the written chain, without caps; N, C: chain ends. No end group written: not given here.

Legend:
[1] = tested on: Staphylococcus aureus (five reference strains ATCC 25923, ATCC 6538, ATCC 6538/P, ATCC 9144, ATCC 12598 and five clinical strains); assay: MIC assay, broth microdilution; format: cell-based; conditions: planktonic S. aureus, 5 × 10^5 CFU/mL, 18 h, 37 °C, Figure 1, mean MIC
Description: Antimicrobial activity was determined against five reference strains: S. aureus ATCC 25923, S. aureus ATCC 6538, S. aureus ATCC 6538/P, S. aureus ATCC 9144, and S. aureus ATCC 12598, which were obtained from the Polish Collection of Microorganisms (Polish Academy of Sciences, Wroclaw), and against five clinical strains of S. aureus, which were provided by the Department of Oral Microbiology, Medical University of Gdańsk (Poland). These strains were also characterized in terms of methicillin resistance. Preliminary identification and detection was conducted on the ChromID MRSA/ChromID S. aureus biplate (bioMérieux) for simultaneous detection of S. aureus and methicillin-resistant S. aureus (MRSA). All tested strains (both reference and clinical S. aureus) were stored in cryo-vials (Roti®-Store, Carl Roth) and recultivated before all microbiological tests. All strains were cultured in three different media: Brain-Heart Infusion Broth (BHI, Biocorp, Warsaw, Poland), Mueller Hinton Broth (MH, Biocorp), and Tryptic-Soy Broth (TSB, Biocorp). Moreover, the stock solutions of lipopeptides were prepared in two different solvents: PBS and an aqueous solution of acetic acid/BSA (0.01% and 0.2% respectively). MIC was determined by broth microdilution method on polystyrene 96-well plates. Bacteria at initial inoculums of 5 × 10^5 CFU/mL were exposed to lipopeptides at concentrations ranging from 0.5 to 256 µg/mL and incubated for 18 h at 37 °C. The MIC value was taken as the lowest concentration of the compound that inhibited the growth of the microorganisms. All assays were performed in triplicate and included the growth and sterility control.

Staphylococcus = conditions: previously described compounds; cited from earlier work
Source text: All of the lipopeptides are palmitoylated at N-terminus and contain three or four basic amino acid residues. Moreover, compounds are amidated at C-termini to maximize positive charge. […] Arginine, as a basic amino acid, introduce positive charge; however, it has more hydrogen donor atoms and is more basic (pKa~1 ...

Escherichia coli = conditions: cited from earlier work
Source text: (§1) It should be noted that conclusions drawn from the in vitro studies are not always consistent with those determined in vivo. Nevertheless, these “not-ideal” conditions may reveal an unexpected activity of new compounds. […] In this case, the MIC values decreased down to sixteenfold in the presence of plasma. The synergistic effect may be connected with complement proteins or clotting factors, as the a ...

S. aureus = conditions: cited from earlier work
Source text: as §1

Pseudomonas aeruginosa = conditions: cited from earlier work
Source text: as §1

Enterococcus faecalis = conditions: cited from earlier work
Source text: as §1

Pal-CKKKRC-NH2 [Pal-CKKKRC-NH2 (linear), non-cyclized palmitoylated lipopeptide amide with two cysteine residues]
MIC values in BHI and TSB compared with MH (influence of medium type) [1]: this dependence was not observed

Pal-CKKRKC-NH2 (disulfide) [palmitoylated lipopeptide amide with intramolecular disulfide bridge]
MIC values in BHI and TSB compared with MH (influence of medium type) [1]: slightly more active in MH

Pal-CRKKKC-NH2 (disulfide) [palmitoylated lipopeptide amide with intramolecular disulfide bridge]
MIC values in BHI and TSB compared with MH (influence of medium type) [1]: slightly more active in MH

Pal-KKKK-NH2
antistaphylococcal activity (Staphylococcus): high antistaphylococcal activity

Pal-RRR-NH2
antistaphylococcal activity (Staphylococcus): high antistaphylococcal activity

protegrin-1 (RGGRLCYCRRRFCVCVGR-NH2; disulfide 8-13, 6-15; ends not checked; UniProt P32194 131-148, looked up) [antimicrobial peptide studied by Steinberg et al. (1997)]
fold lowering of MIC with peptide prepared in aqueous acetic acid and BSA vs reference CLSI protocol (Escherichia coli): up to 30 times | fold lowering of MIC with peptide prepared in aqueous acetic acid and BSA vs reference CLSI protocol (S. aureus): 5 times | fold lowering of MIC with peptide prepared in aqueous acetic acid and BSA vs reference CLSI protocol (Pseudomonas aeruginosa): up to 30 times | fold lowering of MIC with peptide prepared in aqueous acetic acid and BSA vs reference CLSI protocol (Enterococcus faecalis): 5 times
